Assays:
[1] = system: HBV 3′ UTR (nt 1521-2122); assay: 3′ UTR luciferase reporter assay with HBV nt 1521-2122; format: cell-based, hepatitis B virus (HBV ayw); details: Huh7 cells, cotransfection with miRNA expression vector
Source text: (§1) Assay for 3′ UTR or enhancer/promoter was as described previously. Chen, H. L., et al., PloS one 7, e34116 (2012).

HBV enhancer II = assay: HBV enhancer/promoter luciferase reporter assay; format: cell-based, hepatitis B virus; details: Huh7 cells, pGL3/enhII reporter
Source text: as §1

[2] = system: SP1, PPAR α, CEBPb, and HNF4; assay: Expression of other hepatic transcription factors in miR-130a expressing cell lines; format: cell-based, human
Method: (§2) Briefly, 2 μg of total RNA was reverse transcribed into cDNA using random primers and High Capacity cDNA Reverse Transcription kit (Applied Biosystem) at 37° C. for 120 minutes. The cDNA product was then diluted 100 times for real-time PCR analysis using Power SYBR Green PCR master mix (Applied Biosystem), and the default condition in a 20 μl reaction volume by Applied Biosystems 7500 Real-Time PCR System. Data were analyzed by relative quantification methods (ΔΔCt methods) using 7500 software V2.0.1.
(§3) Approximately one million Huh7 and HepG2 cells were transiently transfected by 3 μg plasmid DNA (pSuper and pSuper-miR-130a) with Polyjet (SignaGen), followed by G418 selection for three weeks. The G418-resistant colonies were pooled together.

HBV = HBV DNA replication after cotransfection/treatment, Southern blot; format: cell-based, hepatitis B virus (HBV ayw)
Source text: The methods to construct the miRNA expression vectors are as detailed elsewhere. Chen, H. L. et al. PloS one 7, e34116 (2012). PCR products were sub-cloned from TA cloning vector (RBC) to pSuper (OligoEngine, Inc) by Hind III digestion. All plasmids were confirmed by sequencing. Approximately 8-400 fold higher level of microRNA expression was detected by transfection and stem loop RT-PCR analysis. […] The PPARγ and PGC1α expression vectors were from GeneCopoeia.
Human hepatoma Huh7 and HepG2 cells were maintained as described previously Chua, P. K., et al. Journal of virology 84, 2340-2351 (2010), Le Pogam, S., et al., Journal of virology 79, 1871-1887 (2005). In general, the phenotype of viral replication and the effect of microRNA are stronger in HepG2 than Huh7 cells. However, Huh7 cells are easier to passage and transfect. Therefore, we used these two cell lines interchangeably.
Rosiglitazone and GW9662 were from Sigma. HepG2 and Huh7 cells were seeded in 6-well tissue culture plates at 5×10, Quasdorff, M. et al. Journal of viral hepatitis 17, 527-536 (2010) cells/well. At 24 h post-transfection, Rosiglitazone or GW9662 in 0.1% DMSO was added to medium. Culture medium was changed ever two days before harvest.
HBV core particle-associated DNA, total cellular cytoplasmic RNA, and microRNA were analyzed by Northern blot as described previously. […]

3′ UTR of PPARγ = assay: 3′UTR luciferase reporter assay, PPARγ; format: cell-based, human; details: reporter cotransfection assay
Source text: as §1
(§4) An upstream fragment of the miR-130a precursor (−750 to −1 nt), containing putative binding sites for NF-κB/p65, Egr-1, and CREB, was amplified by PCR from human HepG2 genomic DNA. The PCR products were separated by agarose gel electrophoresis, and the isolated DNA fragments were then cloned into the restriction enzyme digested pGL3 Basic Vector (Promega, Madison, Wis.) containing a firefly luciferase reporter (New England Biolab, Ipswich, Mass.). Various promoter deletion plasmids, containing shorter fragments upstream from the miR-130a precursor, were derived from the full-length promoter plasmid by PCR amplification and cloning using various PCR primers (Table 1 above). All the promoter plasmids were confirmed by sequencing. HuH-7 cells were transfected with promoter deletion plasmids for 48 hrs and firefly luciferase activities were then measured and normalized to each cotransfected renilla luciferase level. The full-length 3′UTRs of PPARγ, PGC1α and SP1 were amplified from genomic DNA of HepG2 cells using their respective forward and reverse primers (Table 1), and cloned into a psiCHECK-2 luciferase vector (Promega, Madison, Wis.) (Shih, C. et al. Virology 179, 871-873 (1990)). […]

NF-κB/p65 = NF-κB/p65 protein level, Western blot; format: cell-based, human; details: stable miR-130a expressing HepG2 cells
HepG2 cells = assay: Measurement of glucose production in cell culture; format: cell-based, human
Method: The glucose level of HBV transgenic mice was measured using a kit of DRI-CHEM SLIDE GLU-PIII (FUJIFILM, JAPAN). Ten microliters of mouse serum was deposited on a FUJI DRI-CHEM SLIDE GLU-PIII. Glucose oxidase (GOD) catalyzes the oxidization of sample glucose to generate hydrogen peroxide which then reacts with dye precursors and forms red dye. The optical reflection density was measured at 505 nm by the FUJI DRI-CHEM analyzer and converted into the glucose concentration […]. For the measurement of glucose concentration in cell culture, HBV producing cells (HepG2 and Q7 cells) were treated with PPARγ antagonist, GW9662 at indicated concentrations. Twenty-four hours before glucose measurement, the medium was replaced with 1 ml of glucose-free DMEM, supplemented with 2 mM sodium pyruvate. After 16 hrs incubation, 50 μl of medium was collected and the glucose concentration (mM) was measured using the glucose colorimetric assay (Biovision).

[3] = system: HBV core protein (HBc), surface antigen (HBsAg) and e antigen (HBeAg); assay: HBV protein expression (HBc Western blot; HBsAg, HBeAg ELISA); format: cell-based, hepatitis B virus (HBV ayw)
Source text: (§5) Anti-HBc (Dako), anti-PPARγ (Santa Cruz), anti-GAPDH, anti-PKLR, anti-G6Pase, anti-tubulin, anti-PGC1α (Origene), anti-PCK1 (Abnova), anti-GCK (Biovision), Secondary antibodies include mouse anti-rabbit-HRP, goat anti-mouse-HRP (GeneTex, Taiwan) and donkey anti-goat-HRP (Santa Cruz).
Chua, P. K., et al. Journal of virology 84, 2340-2351 (2010),

[4] = system: HBV pregenomic RNA (pgRNA); assay: HBV RNA in transfected cells, Northern blot; format: cell-based, hepatitis B virus (HBV ayw); details: HepG2, total cytoplasmic RNA of cotransfected culture
Method: HBV core particle-associated DNA, total cellular cytoplasmic RNA, and microRNA were analyzed by Northern blot as described previously. Chua, P. K., et al. Journal of virology 84, 2340-2351 (2010), Le Pogam, S., et al., Journal of virology 79, 1871-1887 (2005).

glucokinase (GCK) = assay: GCK expression in stable miR-130a expressing cells; format: cell-based, human
Method: as §5, §2, §3

3′ UTR of PGC1α = assay: 3′UTR luciferase reporter assay, PGC1α; format: cell-based, human; details: reporter cotransfection assay
Source text: as §1, §4

[5] = HBV-transfected Huh7 cells, increasing concentration of compound

Molecule	luciferase activity, wild type HBV 3′UTR reporter [1]	luciferase activity driven by HBV enhancer-II (HBV enhancer II)	expression levels of most hepatic transcription factors examined [2]	HBV DNA replication (HBV; HepG2 cells cotransfected with HBV DNA, Southern blot)	luciferase activity, reporter with 3′UTR of PPARγ (3′ UTR of PPARγ)	NF-κB/p65 protein level (NF-κB/p65)	glucose level (HepG2 cells; control versus miR-130a producing cells)	HBV protein expression (HBc, HBsAg, HBeAg) ([3]; HepG2 cells)	secretion of HBsAg and HBeAg ([3]; media of HepG2 cotransfected with HBV DNA, ELISA)	level of HBV pregenomic RNA (pgRNA) [4]	GCK mRNA expression (glucokinase (GCK); miR-130a expressing hepatocytes, RT-qPCR)	GCK protein expression (glucokinase (GCK); stable miR-130a expressing HepG2 or Huh7 cells, Western blot)	luciferase activity, reporter with 3′UTR of PGC1α (3′ UTR of PGC1α)	HBV replication (HBV; [5])	glucose level (HepG2 cells; HepG2 cells treated with GW9662 (20 uM), irrespective of HBV-producing status)	HBV protein expression (secreted HBsAg and HBeAg) [3, 5]
miR-130a: human microRNA, CAGUGCAAUGUUAAAAGGGCAU (SEQ ID NO:1); given as pSuper expression vector or stable expression	no appreciable effect	reduced the luciferase activity driven by HBV enhancer-II	remained unchanged	inhibits HBV DNA replication	significantly reduced the luciferase activity	increased significantly	No significant difference in glucose level	reduce HBV protein expression	reduces the secretion of HBsAg and HBeAg	reduced the level of HBV pregenomic RNA	increased mRNA expression	not reduced but increased	significantly reduced the luciferase activity	–	–	–
O=C(Nc1ccccc1)c1cc([N+](=O)[O-])ccc1Cl [GW9662, reference compound]	–	–	–	–	–	–	–	–	–	–	–	–	–	significantly reduced	further increased	significantly reduced

Reference: patent US9771589B2, “Treating hepatitis virus infection by modulating microRNAs miR-130a, miR-130b, miR-204, or miR-1236” (priority 2013, dated 2017)
